Assay results from publication PMC10424179, “Disrupting Kaposi’s Sarcoma-Associated Herpesvirus (KSHV) Latent Replication with a Small Molecule Inhibitor” (Journal of Medicinal Chemistry, 2023).
Like-named read-outs stand apart in the source and are kept apart here.

Tests used:
[1] = test system: LANA-mediated replication of TR-containing plasmid pGTR4:73 in HEK293 cells; assay: Cell-based replication assay (Southern blot); conditions: Homo sapiens
Text: Figure 3 (A) Illustration of the replication assay. […] (C) Bar graph of the intensity of the pGTR4:73 band after digestion with MfeI and DpnI on the Southern blot shown in panel B at different concentrations for compound 20. Values are means of two replicates.
For the replication assay (Figure 3A), plasmids containing four copies of the terminal repeat of the viral genome and a LANA expression cassette are transfected into HEK293 cells. […] The cells that can express LANA will now amplify the plasmids with the help of LANA and maintain them over several days of cell growth. Where LANA is not expressed, only the transfected plasmids remain and are slowly thinned out by cell growth. After transfection, cells are treated with the compounds or DMSO and allowed to grow for three days. Then, the plasmid DNA is isolated from the cell. The DNA is digested in two separate batches. First, to linearize them (MfeI) and second, with an enzyme (DpnI) that only digests DNA that has a specific methylation pattern derived from the bacteria, in which these plasmids had been amplified. […] One batch contains both enzymes, and only the replicated linearized DNA remains there. The second batch (control) contains only the linearizing enzyme. […] The DNA is separated on a gel by electrophoresis and transferred to a membrane for immobilization (Southern blot). The DNA can then be visualized on this membrane using an enzyme-labeled probe, since the enzyme can generate chemiluminescence with a specific substrate. This assay is designed to specifically probe the LANA-mediated replication of plasmid DNA indicating on-target cellular activity. We performed the assay in a concentration range between 15.625 and 62.5 μM. For compound 20, we observed the strongest inhibitory effect (Figure 3B,C).
This assay is based on protocols described previously and was modified as described in the following. 4 8 x 10^5 HEK 293 cells were plated per well in a 6-well plate. […]

[2] = molecular target: LANA–DNA interaction (oligomerization-deficient LANA DBD aa 1008–1146 mutant / LBS1) (Human herpesvirus 8 (Kaposi's sarcoma-associated herpesvirus), UniProt Q76SB0); assay: Electrophoretic mobility shift assay (EMSA), LANA DBD mutant with LBS1 oligonucleotide; type: biochemical, Kaposi's sarcoma-associated herpesvirus (KSHV)
Description: In these assays, an oligomerization-deficient mutant of a LANA C-terminal protein fragment (aa 1008–1146) and an oligonucleotide representing LANA-binding site (LBS) 1 were used, which are convenient to use and handle for the described biophysical methods, while maintaining the essential DNA-binding interface.[25]
Equation y = A2 + (A1-A2)/(1 + (x/x0)^p) […]
1.4 Electrophoretic Mobility Shift Assay (EMSA)
The EMSA was carried out with slight modific ations as described previously 2 based on the assay in Hellert et al. (2013). 3 His-tagged oligomerization-deficient LANA DBD (aa1008-1146) mutant protein or LANA DBD (aa934-1162) wild type protein (200 nM final) was incubated with a 5´-Dy682-labeled double stranded DNA probe (IBA Lifesciences) (20 nM final) for 30 minutes at RT in the dark. The reaction buffer consisted of 30 mM Tris HCl pH 7.5, 50 mM KCl, 10 mM MgCl2, 1 mM DTT, 1 mM EDTA, 10% glycerol, 0.25% Tween20, 0.5 mg/mL BSA and 0.05 mg/mL poly(dI-dC). […]
dark. 10 µL of the reaction was run on a pre -run native 5% acrylamide gel for 45 minutes at 100V with tris-borate-EDTA buffer. Images of the gels were acquired and analysed with the Odyssey (Licor) using the Image Studio software.
Fig S2: Gels of EMSA experiments at 250 μM for all compounds (A) and dose-dependent curves for compound 20 using LANA DBD mutant (B) and LANA wildtype (C) as well as LBS1. Values are means […]
Gleichung y = A2 + (A1-A2)/(1 + (x/x0)^p) […]

Kinetic solubility = type: physicochemical; conditions: PBS with 1% DMSO; 1% DMSO in PBS, pH 7.4
Description: The next step was an in vitro ADMET profiling of the best seven compounds so far: 9, 11, 14, 19, 20, 21, and 27. The compounds were tested for their kinetic solubility (1% DMSO in PBS, pH 7.4), lipophilicity (chromatographic Log D7.4 value), cellular permeability (using Caco-2 cells), and metabolic stability (using mouse and human liver S9 fractions) (see Table 3).
The desired compounds were sequentially diluted in DMSO in a 96-well plate. 1.5 µL of each well were transferred into another 96-well plate and mixed with 148.5 µL of PBS. Plates were shaken for 5 min at 600 rpm at room temperature (r.t.), and the absorbance at 620 nm was measured. Absorbance values were normalized by blank subtraction and plotted using GraphPad Prism 8.4.2 (GraphPad Software, San Diego, CA, USA). Solubility (S) was determined based on the First X value of AUC function using a threshold of 0.005. […]

Compound: COc1ccc(-c2cc(C)c(-n3cc(-c4ccc(C(=O)O)cc4)nn3)cn2)c(Cl)c1 [Compound 20]
- inhibition at 62.5 µM ([1]; 72 h, HEK293 cells, 62.5 μM, three days of treatment): 67%
- IC50 ([1]; 72 h, HEK293 cells, three days of treatment, estimated from Southern blot, read-out: IC50 value (southern blot)): 33.2 ± 3.6 µM
- IC50 ([1]; Fig S5B, HEK293 replication assay, read-out: x0 of logistic fit, sigmoidal plot of southern blot (converted)): 33.2 µM
- Inhibition (EMSA, LBS1) @250 μM ([2]; compound at 250 μM, LBS1 oligonucleotide, LANA aa 1008–1146 mutant): 93%
- IC50 ([2]; read-out: x0 of logistic fit, dose-dependent EMSA curve (converted), Fig S2, LBS1, curve with A2 95.7, assigned to LANA DBD mutant): 43.7 µM
- solubility kinetic at 5 min (Kinetic solubility): > 200 µM
